According to patent US8436004B2, “Bicycloaniline derivative” (MSD K.K., priority 2007, dated 2013):
pEC50: −log10 of the molar value. Structures can show the parent of a compound that is named as a salt.

Experiments:
[1] = tested on: Cdc2 (Cdk1) tyrosine 15-phosphorylation in NCI-H1299 cells; assay: Cdc2 (Cdk1) tyrosine 15-phosphorylation-inhibitory effect in camptothecin-treated NCI-H1299 cells (ELISA); format: cell-based; details: Homo sapiens; NCI-H1299, camptothecin 200 nM 16 hours, then test compound + nocodazole 8 hours; read-out: Cdc2-Y15 Phosphorylation-Inhibitory Effect (H1299, + camptothecin) (EC50)
Text: Pharmacological Test 2 (Method of Determining Drug Potency with Cells (Cdc2 (Cdk1) Tyrosine 15-Phosphorylation-Inhibitory Effect))
Fetal bovine serum (FBS) was obtained from Morgate; media RPMI1640 and DMEM were from Invitrogen; camptothecin was from Sigma; gemcitabine was from Nippon Eli Lilly; nocodazole and protease inhibitor cocktail were from Sigma; rabbit anti-Cdc2 antibody and mouse anti-Cdc2 antibody were from Santa Cruz Biotechnology; rabbit anti-tyrosine 15-phosphorylated Cdc2 antibody and horseradish peroxidase-labeled anti-mouse IgG antibody were from Cell Signaling Technology; sure blue reserve TMB peroxidase substrate was from Kirkegaard and Perry Laboratories.
Human non-small cell lung cancer cells (NCI-H1299) and human colon cancer cells (WiDr) were obtained from American Type Culture Collection (ATCC).
In the method of using NCI-H1299 cells, the cells were suspended in a medium of 10% FBS-added RPMI1640, and the cell suspension was applied to a 96-well Nunclondelta-processed plastic plate (bought from Nunc), in an amount of 2000 cells/100 μL/well, in which the cells were incubated overnight in 5% CO2-95% air at 37° C. Camptothecin was dissolved in dimethylsulfoxide (DMSO), and diluted with a medium of 10% FBS-added RPMI1640, and then this was applied to the plate on which the cells had been previously sowed, in an amount of 50 μL/well in such a manner that the final concentration of camptothecin could be 200 nM. Then, the cells were incubated for 16 hours at 37° C. in 5% CO2-95% air. The test compound was stepwise diluted with DMSO, then diluted with 4000 nM nocodazole-containing, 10% FBS-added RPMI1640, and applied to the plate on which the camptothecin-treated cells had been sowed, in an amount of 50 μL/well. The cells were incubated for 8 hours at 37° C. in 5% CO2-95% air, then the culture was removed, and a cytolytic buffer was added to the plate in an amount of 100 μL/well, shaken at 4° C. for 2 hours, then frozen at −80° C., and thawed to give a cell solution. Cdc2 and tyrosine 15-phosphorylated Cdc2 in the cell solution were determined through enzyme-linked immunosorbent assay (ELISA), and the ratio of tyrosine 15-phosphorylated Cdc2 to Cdc2 was calculated to obtain the 50% phosphorylation-inhibitory concentration of the test compound to the cells (EC50, nM). The cytolytic buffer used herein is an aqueous solution containing 20 mM Hepes (pH 7.5), 150 mM sodium chloride, 1 mM disodium ethylenediaminetetraacetate, 0.1% polyoxyethylene (10) octylphenyl ether, 1% protease inhibitor cocktail, 1 mM dithiothreitol, 2 mM sodium orthovanadate, 10 mM sodium fluoride and 10 mM glycerol diphosphate. Cdc2 was determined through ELISA as follows: A rabbit anti-Cdc2 antibody solution, which had been diluted 200-fold with 50 mM carbonate-bicarbonate buffer (pH 9.6), was applied to a 96-well maxisorpimmuno plate (bought from Nunc), in an amount of 50 μL/well, and statically kept overnight at 4° C. so as to fix the antibody on the plate. Next, this was washed three times with phosphate-buffered physiological saline (PBS), and 5% bovine serum albumin-containing PBS (5% BSA/PBS) was added thereto in an amount of 300 μL/well, and statically kept at room temperature for 2 hours, and then again washed three times with PBS. A mouse anti-Cdc2 antibody solution that had been diluted 100-fold with 0.05% polyoxyethylene sorbitan monolaurate and 1% BSA-containing Tris-HCl-buffered physiological saline (1% BSA/TBS-T) was added to it in an amount of 50 μL/well, and the cell solution was added thereto in an amount of 5 μL/well and statically kept overnight at 4° C. Next, this was washed three times with 0.05% polyoxyethylene sorbitan monolaurate and 0.1% BSA-containing Tris-HCl-buffered physiological saline (0.1% BSA/TBS-T), and then a horseradish peroxidase-labeled anti-mouse IgG antibody solution that had been diluted 2000-fold with 1% BSA/TBS-T was added thereto in an amount of 70 μL/well, and statically kept at room temperature for 3 hours. […]

[2] = tested on: Human colon cancer cells (WiDr); assay: Checkpoint-escape effect in gemcitabine-treated WiDr cells (phosphorylated histone H3-positive cells); format: cell-based; details: gemcitabine 100 nM 24 hours, then test compound + nocodazole 8 hours
Text: Pharmacological Test 3 (Method of Determining Drug Potency with Cells (Checkpoint-Escape Effect))
Fetal bovine serum (FBS) was obtained from Morgate; a medium of DMEM was from Invitrogen; gemcitabine was from Nippon Eli Lilly; nocodazole and 4′,6-diamidino-2-phenylindole were from Sigma; rabbit anti-phosphorylated histone H3 antibody was from Upstate; and fluorescence-labeled (Alexa Fluor 488) anti-rabbit IgG antibody was from Molecular Probe.
Human colon cancer cells (WiDr) were obtained from American Type Culture Collection (ATCC).
The cells were suspended in a medium of 10% FBS-added DMEM, and the cell suspension was applied to a poly-D-lysine-coated 96-well plastic plate (bought from Becton Dickinson) in an amount of 2000 cells/100 μL/well, in which the cells were incubated overnight in 5% CO2-95% air at 37° C. […] Next, this was washed with PBS, and a solution containing 4′,6-diamidino-2-phenylindole that had been diluted with 1% BSA/PBS to have a concentration 10 μg/mL and a fluorescence-labeled (Alexa Fluor 488) anti-rabbit IgG antibody that had been diluted 250-fold was added to it in an amount 50 μL/well, and reacted in a dark place at room temperature for 60 minutes. […]

Structure (SMILES) | pEC50 [1] | pEC50 [2]
CN1Cc2cc(Nc3ncc4c(=N)n(-c5c(Cl)cccc5Cl)c(=O)[nH]c4n3)ccc2C(C)(C)C1 [Example 2, 3-(2,6-dichlorophenyl)-4-imino-7-{[2,4,4-trimethyl-1,2,3,4-tetrahydroisoquinolin-7-yl]amino}-3,4-dihydropyrimido[4,5-d]pyrimidin-2(1H)-one] | 7.57 | –
CN1Cc2cc(Nc3ncc4c(=N)n(-c5c(Cl)cccc5Cl)c(=O)[nH]c4n3)ccc2C2(CC2)C1 [Example 1, 3-(2,6-dichlorophenyl)-4-imino-7-[(2′-methyl-2′,3′-dihydro-1′H-spiro[cyclopropane-1,4′-isoquinolin]-7′-yl)amino]-3,4-dihydropyrimido[4,5-d]pyrimidin-2(1H)-one dihydrochloride] | 7.72 | 7.43
CN1Cc2cc(Nc3ncc4c(=N)n(-c5c(Cl)cccc5Cl)c(=O)[nH]c4n3)ccc2C1(C)C [Example 7, 3-(2,6-dichlorophenyl)-4-imino-7-[(1,1,2-trimethyl-2,3-dihydro-1H-isoindol-5-yl)amino]-3,4-dihydropyrimido[4,5-d]pyrimidin-2(1H)-one] | 7.77 | –
